PubChem BioAssay AID2060485 (Molecular Pharmacology Branch, DTP, NCI, 2025)
“And” between values parts separate entries of the source, which are not always exact repeats. Identical values can stand only once.

Tested on: A375 multi-cell spheroids with HUVEC/MSC, viability
Assay: Anticancer human tumor A375 cell line growth inhibition [GQUAD];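 further: spheroids exposed to compounds for seven days before readout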
Conditions: for viability, T/C: stronger effect = lower value
Excerpt: DNA G-quadruplex Stabilizer Agents in Combinations in Complex Spheroids
A high-throughput screen of multi-cell type tumor spheroids was designed to identify active combinations of DNA G-quadruplex stabilizer agents and targeted small molecules. Complex spheroids include a stromal component modeled by human endothelial cells (HUVEC) and fibroblasts modeled by human mesenchymal stem cells (MSCs). The concentration ranges selected for each drug and investigational agent were based upon clinically achievable concentrations if the clinical Cmax of the agent was known.
Compounds. The drugs and investigational agents: pidnarulex (CX-5461; NSC782164), APTO-253 (NSC789042), BRACO-19 (NSC847499), peposertib (NSC802822), ceralasertib (NSC780249), elimusertib (NSC800525), camonsertib (NSC841442), AZD-1390 (NSC803789), olaparib (NSC753686), talazoparib (NSC767125), ART-558 (NSC835418), sotorasib (NSC818433), MRTX-1133 (NSC836407), SN-38 (NSC673596), topotecan (NSC609699), etoposide (NSC141540), doxorubicin (NSC123127), gemcitabine (NSC613327), 5-fluorouracil (NSC19893), paclitaxel (NSC125973), vemurafenib (NSC761431), panobinostat (NSC761190), R-306465 (JNJ-16241199; NSC773264), adavosertib (NSC754352), TP-3654 (NSC805149), carboplatin (NSC241240), KSQ-4279 (NSC840948), and staurosporine (NSC755774) were obtained from the National Cancer Institute (NCI) Developmental Therapeutics Program Chemical Repository (34). The FDA-approved anticancer drug set is available from the NCI Developmental Therapeutics Program. […] The stock solutions were prepared in dimethyl sulfoxide (DMSO, Sigma-Aldrich, St. Louis, MO, cat. D2650) at 800-fold the tested concentration and stored at -70 degrees C prior to their use. All drugs and investigational agents were tested over a range starting from a high concentration at or near the clinical Cmax and decreasing in half-log increments. If the clinical Cmax for an agent had not been determined, the highest concentration tested was 10 microM.
2.3 Cell Culture. All cells were maintained in an incubator at 37 degrees C and 5% CO2 with 95% humidity. The PDC lines were cultured according to standard operating procedures established by the NCI PDMR. All PDCs were thawed and cultured in Matrigel-coated flasks prepared with a working solution of 1X Ham's F-12 nutrient mix, without supplementation (Invitrogen, cat. 11765054), 100 U/mL penicillin-streptomycin (Invitrogen, cat. 15140122), and 2.5% Matrigel (Corning Inc., cat. 354248) for the first three passages. The 857933-349-R-J2-PDC line was cultured in 6C/Colon 1B media, which includes advanced DMEM/F-12 (Thermo Fisher Scientific, cat. 12634028), 10 mM HEPES (Thermo Fisher Scientific, cat. 15630080), 1X GlutaMAX supplement (Thermo Fisher Scientific, cat. 35050061), 0.1 mg/mL primocin (InvivoGen, cat. ant-pm-2), 10% defined fetal bovine serum, heat inactivated (HyClone Laboratories Inc., cat. SH30070.03HI), 50% L-WRN conditioned media (ATCC, cat. CRL-3276), 1.25 mM N-Acetyl-L-cysteine (Sigma-Aldrich, cat. A9165), 10 mM nicotinamide (Sigma-Aldrich, cat. N0636), 1X B-27 supplement (Thermo Fisher Scientific, cat. 17504044), 1X N-2 supplement (Thermo Fisher Scientific, cat. 17502048), 10 microM Y-27632 dihydrochloride (Tocris Bioscience, cat. 1254), and 50 ng/mL human EGF recombinant protein (Thermo Fisher Scientific, cat. PHG0311). The 485176-168-R4-J1-PDC line was cultured in Panc media, which includes all 6C/Colon 1B media components plus 100 ng/mL human FGF-10 (Thermo Fisher Scientific, cat. 100-26), 500 nM SB-431542 (Selleckchem, cat. S1067), and gastrin (Tocris, cat. 3006).
[…]

C#Cc1c(F)ccc2cc(O)cc(-c3ncc4c(N5CC6CCC(C5)N6)nc(OCC56CCCN5CC(F)C6)nc4c3F)c12 (configuration not stated)
viability, T/C (compound 0.0316 µM): 103% and 97.8% and 101% | viability, T/C (compound 0.1 µM): 96% and 106% and 96.2% | viability, T/C (compound 0.316 µM): 97.2% and 96.2% and 108% | viability, T/C (compound 1 µM): 101% and 117% (2×) | viability, T/C (compound 3.16 µM): 113% and 106% and 101% | viability, T/C (compound 10 µM): 90.4% and 98.4% and 113% | IC50 (curve of compound): > 10000 nM

C=CCn1c(=O)c2cnc(Nc3ccc(N4CCN(C)CC4)cc3)nc2n1-c1cccc(C(C)(C)O)n1
viability, T/C (compound 0.0316 µM): 101% and 98.4% and 96.4% | viability, T/C (compound 0.1 µM): 104% and 102% and 96.9% | viability, T/C (compound 0.316 µM): 89.5% and 96.9% and 102% | viability, T/C (compound 1 µM): 48.4% and 59% and 66.4% | viability, T/C (compound 3.16 µM): 11.5% and 13.3% and 17.2% | viability, T/C (compound 10 µM): 5.76% and 7.73% and 8.28% | IC50 (curve of compound): 943 nM and 1250 nM and 1470 nM

CC(=O)O[C@H]1C(=O)[C@@]2(C)[C@H]([C@H](OC(=O)c3ccccc3)[C@]3(O)C[C@H](OC(=O)[C@H](O)[C@@H](NC(=O)c4ccccc4)c4ccccc4)C(C)=C1C3(C)C)[C@]1(OC(C)=O)CO[C@@H]1C[C@@H]2O
viability, T/C (compound 0.0316 µM): 68.9% and 90.7% and 112% | viability, T/C (compound 0.1 µM): 18.1% and 20.5% and 32.6% | viability, T/C (compound 0.316 µM): 9.64% and 11.9% and 16.6% | viability, T/C (compound 1 µM): 9.68% and 8.91% and 13.8% | viability, T/C (compound 3.16 µM): 7.88% and 12.2% and 13.3% | viability, T/C (compound 10 µM): 10.8% and 15.2% and 17.8% | IC50 (curve of compound): 48.5 nM and 61.6 nM and 77.6 nM

CC(C)(O)C1CCC(Nc2ccc3ncc(-c4cccc(C(F)(F)F)c4)n3n2)CC1 (configuration not stated)
viability, T/C (compound 0.0316 µM): 104% and 93.2% and 105% | viability, T/C (compound 0.1 µM): 105% and 99.9% and 95.9% | viability, T/C (compound 0.316 µM): 99.1% and 95.6% and 91.5% | viability, T/C (compound 1 µM): 97.7% and 95.2% and 105% | viability, T/C (compound 3.16 µM): 90.2% and 83.5% and 92% | viability, T/C (compound 10 µM): 87.5% and 88% and 97.8% | IC50 (curve of compound): > 10000 nM

CCCS(=O)(=O)Nc1ccc(F)c(C(=O)c2c[nH]c3ncc(-c4ccc(Cl)cc4)cc23)c1F
viability, T/C (compound 0.0316 µM): 41.8% and 44% and 40.9% | viability, T/C (compound 0.1 µM): 16.1% and 14.9% and 17.2% | viability, T/C (compound 0.316 µM): 8.83% and 9.93% and 11.1% | viability, T/C (compound 1 µM): 6.9% and 7.11% and 7.65% | viability, T/C (compound 3.16 µM): 5.54% and 6.38% and 6.53% | viability, T/C (compound 10 µM): 5.63% and 5.69% and 7.54% | IC50 (curve of compound): < 31.6 nM

COc1cccc2c1C(=O)c1c(O)c3c(c(O)c1C2=O)CC(O)(C(=O)CO)CC3OC1CC(N)C(O)C(C)O1 (configuration not stated)
viability, T/C (compound 0.0316 µM): 93% and 102% and 100% | viability, T/C (compound 0.1 µM): 89.2% and 78.7% and 73.9% | viability, T/C (compound 0.316 µM): 33.4% and 33.9% and 34.3% | viability, T/C (compound 1 µM): 19.4% and 18.2% and 21.9% | viability, T/C (compound 3.16 µM): 1.94% and 2.47% and 2.18% | viability, T/C (compound 10 µM): 0.14% and 0.19% and 0.1% | IC50 (curve of compound): 231 nM and 221 nM and 215 nM

COc1ncnc(C2CC2)c1-c1ncc2cnn(Cc3ccc(-c4nc(C(F)(F)F)cn4C(C)C)cc3)c2n1
viability, T/C (compound 0.0316 µM): 94% and 97.5% and 102% | viability, T/C (compound 0.1 µM): 93.6% and 99.8% and 99.5% | viability, T/C (compound 0.316 µM): 93.8% and 100% and 99.5% | viability, T/C (compound 1 µM): 104% and 98.2% and 103% | viability, T/C (compound 3.16 µM): 109% and 103% and 105% | viability, T/C (compound 10 µM): 106% and 108% and 99.5% | IC50 (curve of compound): > 10000 nM

Nc1ccn(C2OC(CO)C(O)C2(F)F)c(=O)n1 (configuration not stated)
viability, T/C (compound 0.0316 µM): 17.8% and 12.3% and 18.4% | viability, T/C (compound 0.1 µM): 9.82% and 7.07% and 9.32% | viability, T/C (compound 0.316 µM): 9.4% and 5.69% and 8.76% | viability, T/C (compound 1 µM): 10.4% and 6.8% and 10.7% | viability, T/C (compound 3.16 µM): 11.5% and 7.2% and 10.4% | viability, T/C (compound 10 µM): 9.06% and 6.96% and 7.8% | IC50 (curve of compound): < 31.6 nM

O=C(NO)c1cnc(N2CCN(S(=O)(=O)c3ccc4ccccc4c3)CC2)nc1
viability, T/C (compound 0.0316 µM): 107% and 124% and 114% | viability, T/C (compound 0.1 µM): 109% and 110% and 112% | viability, T/C (compound 0.316 µM): 5.8% and 7.04% and 12.4% | viability, T/C (compound 1 µM): 0.3% and 0.23% | viability, T/C (compound 3.16 µM): 0.3% and 0.39% and 0.16% | viability, T/C (compound 10 µM): 0.32% and 0.35% and 0.19% | IC50 (curve of compound): 192 nM and 195 nM and 205 nM

O=c1[nH]cc(F)c(=O)[nH]1
viability, T/C (compound 0.0316 µM): 97% and 94.6% and 100% | viability, T/C (compound 0.1 µM): 103% and 94.6% and 105% | viability, T/C (compound 0.316 µM): 106% and 95.4% and 101% | viability, T/C (compound 1 µM): 96.8% and 100% and 101% | viability, T/C (compound 3.16 µM): 106% and 94.5% and 104% | viability, T/C (compound 10 µM): 104% and 106% and 103% | IC50 (curve of compound): > 10000 nM

CC(C)(O)C1CCC(Nc2ccc3ncc(-c4cccc(C(F)(F)F)c4)n3n2)CC1 (configuration not stated) + CN(C)c1ccc(Nc2c3ccc(NC(=O)CCN4CCCC4)cc3nc3cc(NC(=O)CCN4CCCC4)ccc23)cc1
IC50 (curve of first compound, second compound 0.0316 µM): > 10000 nM | IC50 (curve of first compound, second compound 0.1 µM): > 10000 nM | IC50 (curve of first compound, second compound 0.316 µM): > 10000 nM | IC50 (curve of first compound, second compound 1 µM): > 10000 nM | IC50 (curve of first compound, second compound 3.16 µM): 10000 nM | IC50 (curve of first compound, second compound 10 µM): 2180 nM | viability, T/C (second compound 0.0316 µM, first compound 0.0316 µM): 95.9% | viability, T/C (second compound 0.0316 µM, first compound 0.1 µM): 93% | viability, T/C (second compound 0.0316 µM, first compound 0.316 µM): 95.7% | viability, T/C (second compound 0.0316 µM, first compound 1 µM): 104% | viability, T/C (second compound 0.0316 µM, first compound 3.16 µM): 84% | viability, T/C (second compound 0.0316 µM, first compound 10 µM): 92.9% | viability, T/C (second compound 0.1 µM, first compound 0.0316 µM): 93.1% | viability, T/C (second compound 0.1 µM, first compound 0.1 µM): 92.6% | viability, T/C (second compound 0.1 µM, first compound 0.316 µM): 96.6% | viability, T/C (second compound 0.1 µM, first compound 1 µM): 90.6% | viability, T/C (second compound 0.1 µM, first compound 3.16 µM): 79.2% | viability, T/C (second compound 0.1 µM, first compound 10 µM): 88.5% | viability, T/C (second compound 0.316 µM, first compound 0.0316 µM): 99% | viability, T/C (second compound 0.316 µM, first compound 0.1 µM): 91.2% | viability, T/C (second compound 0.316 µM, first compound 0.316 µM): 88.9% | viability, T/C (second compound 0.316 µM, first compound 1 µM): 104% | viability, T/C (second compound 0.316 µM, first compound 3.16 µM): 80.6% | viability, T/C (second compound 0.316 µM, first compound 10 µM): 92.8% | viability, T/C (second compound 1 µM, first compound 0.0316 µM): 96.7% | viability, T/C (second compound 1 µM, first compound 0.1 µM): 92.4% | viability, T/C (second compound 1 µM, first compound 0.316 µM): 97.7% | viability, T/C (second compound 1 µM, first compound 1 µM): 95.1% | viability, T/C (second compound 1 µM, first compound 3.16 µM): 75.9% | viability, T/C (second compound 1 µM, first compound 10 µM): 85% | viability, T/C (second compound 3.16 µM, first compound 0.0316 µM): 93.7% | viability, T/C (second compound 3.16 µM, first compound 0.1 µM): 99.2% | viability, T/C (second compound 3.16 µM, first compound 0.316 µM): 97.7% | viability, T/C (second compound 3.16 µM, first compound 1 µM): 98.1% | viability, T/C (second compound 3.16 µM, first compound 3.16 µM): 49.6% | viability, T/C (second compound 3.16 µM, first compound 10 µM): 68.7% | viability, T/C (second compound 10 µM, first compound 0.0316 µM): 94.6% | viability, T/C (second compound 10 µM, first compound 0.1 µM): 91.2% | viability, T/C (second compound 10 µM, first compound 0.316 µM): 96.7% | viability, T/C (second compound 10 µM, first compound 1 µM): 84.9% | viability, T/C (second compound 10 µM, first compound 3.16 µM): 25.9% | viability, T/C (second compound 10 µM, first compound 10 µM): 40.9%
